Results from patent US20230114241A1, “METHODS OF TREATING EPILEPSY USING THE SAME” (Trevena, Inc., priority 2019, published 2023).

What was measured:
[1] = target: T1, human sphingosine-1-phosphate receptor 1 (S1P1) (Homo sapiens, UniProt P21453); assay: Inhibition of cAMP production (HTRF cAMP HiRange), S1P1 CHO-K1 cells; assay type: cell-based; settings: for Emax: CHO-K1, efficacy normalized to maximum efficacy of fingolimod, read-out: hS1P1 CAMP SPAN; for EC50: read-out: hS1P1 CAMP pEC50 (converted)
Summary of the method: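 CHO-K1 cells co-expressing human S1P1 (C-terminal ProLink tag) and EA-β-arrestin2, plated overnight; after 30 min compound incubation at 37 °C, intracellular cAMP measured by HTRF TR-FRET following 1 h at room temperature. Values normalized to fingolimod.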
Target sequence in this assay (P21453 whole entry): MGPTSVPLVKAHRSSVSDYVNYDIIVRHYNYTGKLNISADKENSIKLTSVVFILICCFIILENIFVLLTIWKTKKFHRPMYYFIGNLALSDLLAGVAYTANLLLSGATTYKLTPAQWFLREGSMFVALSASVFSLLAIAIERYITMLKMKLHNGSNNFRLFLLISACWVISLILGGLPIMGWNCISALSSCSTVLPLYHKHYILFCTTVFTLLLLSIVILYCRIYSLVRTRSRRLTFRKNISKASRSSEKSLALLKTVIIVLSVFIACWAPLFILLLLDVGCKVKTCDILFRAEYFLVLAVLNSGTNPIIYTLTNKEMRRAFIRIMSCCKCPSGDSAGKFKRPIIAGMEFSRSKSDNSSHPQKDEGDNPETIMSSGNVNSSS

[2] = target: T1, human sphingosine-1-phosphate receptor 1 (S1P1); assay: β-Arrestin2 recruitment assay (PathHunter), S1P1 CHO-K1 cells; assay type: cell-based; settings: for Emax: efficacy normalized to maximum efficacy of fingolimod, read-out: hS1P1 B-arrestin2 SPAN; for EC50: β-arrestin2 recruitment, read-out: hS1P1 B-arrestin2 pEC50 (converted)
Summary of the method: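 CHO-K1 cells co-expressing EA-β-arrestin2 and ProLink-tagged human S1P1 plated overnight, then stimulated 60 min at 37 °C. Enzyme-fragment complementation (β-galactosidase) detected after 1 h at room temperature by luminescence; values normalized to fingolimod.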
Target sequence in this assay (P21453 whole entry): as above
Target sequence in this assay (P32121 whole entry partner): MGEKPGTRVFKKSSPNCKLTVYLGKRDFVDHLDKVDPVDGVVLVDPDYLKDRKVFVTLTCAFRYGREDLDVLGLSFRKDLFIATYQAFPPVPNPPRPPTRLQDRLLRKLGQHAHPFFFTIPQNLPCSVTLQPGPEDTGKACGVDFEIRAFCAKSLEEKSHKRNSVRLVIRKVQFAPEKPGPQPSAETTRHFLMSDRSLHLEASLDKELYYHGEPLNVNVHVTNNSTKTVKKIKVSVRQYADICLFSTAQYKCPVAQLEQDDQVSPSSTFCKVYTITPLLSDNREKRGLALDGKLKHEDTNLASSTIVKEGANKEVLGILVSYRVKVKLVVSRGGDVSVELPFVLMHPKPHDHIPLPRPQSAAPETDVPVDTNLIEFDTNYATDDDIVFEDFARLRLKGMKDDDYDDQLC

[3] = inhibition of cAMP production, potency
[4] = CHO-K1, β-arrestin2 recruitment
[5] = inhibition of cAMP production, S1P1

SMILES | Emax ([1]; inhibition of cAMP production) [%] | EC50 [1, 3] [µM] | Emax [2, 4] [%] | EC50 ([2]; potency) [µM] | Emax [1] [%] | EC50 [1, 5] [µM] | Emax ([2]; CHO-K1) [%] | EC50 ([2]; S1P1) [µM]
Cc1cc(C)cc(-c2noc(-c3ccc4c(c3)nnn4C3CCOCC3)n2)c1 [Compound 93, 5-[3-(3,5-dimethyl-phenyl)-1,2,4-oxadiazol-5-yl]-1-(oxan-4-yl)-1H-1,2,3-benzotriazole] | < 75 | > 0.316 | > 75 | > 10 | – | – | – | –
COc1ncccc1-c1noc(-c2ccc3c(c2)nnn3C(C)C)n1 [Compound 619, 5-(1-isopropyl-1H-benzo[d][1,2,3]triazol-5-yl)-3-(2-methoxy-pyridin-3-yl)-1,2,4-oxadiazole] | – | – | – | – | > 75 | < 0.316 | > 75 | < 10
CC(C)n1ccc2cc(-c3noc(-c4cccnc4)n3)ccc21 [Compound 396, 3-(1-isopropyl-1H-indol-5-yl)-5-(pyridin-3-yl)-1,2,4-oxadiazole] | – | – | – | – | < 75 | > 0.316 | > 75 | > 10
CC(C)n1nnc2cc(-c3nc(-c4ccc(COc5ccccc5)cc4)no3)ccc21 [Compound 49, 5-{3-[4-(phenoxy-methyl)phenyl]-1,2,4-oxadiazol-5-yl}-1-(propan-2-yl)-1H-1,2,3-benzotriazole] | < 75 | > 0.316 | < 75 | > 10 | – | – | – | –
CCC1(CC)C/C(=N\O)c2cc(-c3nc(-c4cccnc4)no3)ccc2O1 [Compound 431, N-[(4E)-2,2-diethyl-6-[3-(pyridin-3-yl)-1,2,4-oxadiazol-5-yl]-3,4-dihydro-2H-1-benzopyran-4-ylidene]hydroxylamine] | – | – | – | – | > 75 | > 0.316 | > 75 | > 10
N#Cc1cc(-c2nnc(-c3ccc4c(c3)ncn4CCO)o2)ccc1NCC(F)F [Compound 578, 2-[(2,2-difluoro-ethyl)amino]-5-{5-[1-(2-hydroxyethyl)-1H-1,3-benzodiazol-5-yl]-1,3,4-oxadiazol-2-yl}benzonitrile] | – | – | – | – | > 75 | > 0.316 | < 75 | > 10
COc1ccccc1-c1noc(-c2ccc3c(c2)ncn3C(C)C)n1 [Compound 373, 5-(1-isopropyl-1H-benzo[d]imidazol-5-yl)-3-(2-methoxy-phenyl)-1,2,4-oxadiazole] | – | – | – | – | > 75 | > 0.316 | > 75 | > 10
N#Cc1cc(-c2nc(-c3ccc4c(c3)CCC(=O)N4)no2)ccc1NCC(F)(F)F [Compound 472, 5-[3-(2-oxo-1,2,3,4-tetrahydroquinolin-6-yl)-1,2,4-oxadiazol-5-yl]-2-[(2,2,2-trifluoro-ethyl)amino]benzonitrile] | – | – | – | – | > 75 | < 0.316 | > 75 | < 10
CC(C)n1nnc2cc(-c3nc(-c4ccccc4F)co3)ccc21 [Compound 21, 5-[4-(2-fluorophenyl)-1,3-oxazol-2-yl]-1-(propan-2-yl)-1H-1,2,3-benzotriazole] | > 75 | > 0.316 | > 75 | > 10 | – | – | – | –
Cc1ccncc1-c1noc(-c2cnc3c(c2)nnn3C(C)C)n1 [Compound 414, 4-methyl-3-{5-[3-(propan-2-yl)-3H-[1,2,3]triazolo[4,5-b]pyridin-6-yl]-1,2,4-oxadiazol-3-yl}pyridine] | – | – | – | – | < 75 | < 0.316 | > 75 | > 10
CC(C)(CO)Cn1nnc2cc(-c3noc(-c4ccncc4C(F)(F)F)n3)ccc21 [Compound 528, 2,2-dimethyl-3-(5-(5-(3-(trifluoro-methyl)pyridin-4-yl)-1,2,4-oxadiazol-3-yl)-1H-benzo[d][1,2,3]triazol-1-yl)propan-1-ol] | – | – | – | – | > 75 | > 0.316 | < 75 | > 10
O=C1CNc2ccc(-c3nc(-c4cn[nH]c4)no3)cc2N1 [Compound 645, 7-[3-(1H-pyrazol-4-yl)-1,2,4-oxadiazol-5-yl]-1,2,3,4-tetrahydro-quinoxalin-2-one] | – | – | – | – | > 75 | > 0.316 | < 75 | > 10
Cc1nc2cc(-c3nnc(-c4ccc(NC(C)C)c(C#N)c4)o3)ccc2[nH]1 [Compound 560, 5-[5-(2-methy1-1H-1,3-benzodiazol-5-yl)-1,3,4-oxadiazol-2-yl]-2-[(propan-2-yl)amino]benzonitrile] | – | – | – | – | > 75 | < 0.316 | > 75 | < 10
C=CCn1nnc2cc(-c3noc(-c4ccccc4Br)n3)ccc21 [Compound 42, 3-(1-allyl-1H-benzo[d][1,2,3]triazol-5-yl)-5-(2-bromo-phenyl)-1,2,4-oxadiazole] | > 75 | > 0.316 | > 75 | > 10 | – | – | – | –
N#Cc1cc(-c2nc(-c3ccc4c(c3)NC(=O)CC4)no2)ccc1NCC1CC1 [Compound 471, 2-((cyclopropyl-methyl)amino)-5-(3-(2-oxo-1,2,3,4-tetrahydroquinolin-7-yl)-1,2,4-oxadiazol-5-yl)benzonitrile] | – | – | – | – | > 75 | < 0.316 | > 75 | < 10
CC(C)Cn1nnc2cc(-c3nc(-c4ccccc4Cl)no3)ccc21 [Compound 289, 5-[3-(2-chlorophenyl)-1,2,4-oxadiazol-5-yl]-1-(2-methylpropyl)-1H-1,2,3-benzotriazole] | < 75 | > 0.316 | < 75 | > 10 | – | – | – | –
CCC1(CC)CC(=O)c2cc(-c3nc(-c4ccoc4)no3)ccc2O1 [Compound 495, 2,2-diethyl-6-(3-(furan-3-yl)-1,2,4-oxadiazol-5-yl)chroman-4-one] | – | – | – | – | > 75 | < 0.316 | > 75 | < 10
CC(C)n1nnc2cc(-c3nc(-c4ccccc4Cl)no3)ccc21 [Compound 17] | > 75 | < 0.316 | > 75 | < 10 | – | – | – | –
CC(C)n1nnc2cc(-c3ncc(-c4ccccc4F)s3)ccc21 [Compound 63, 5-(2-fluorophenyl)-2-(1-isopropyl-1H-benzo[d][1,2,3]triazol-5-yl)thiazole] | < 75 | < 0.316 | < 75 | > 10 | – | – | – | –
Cc1cncc(-c2nc(-c3ccc4c(c3)nnn4C(C)C)no2)c1 [Compound 159, 3-(1-isopropyl-1H-benzo[d][1,2,3]triazol-5-yl)-5-(5-methylpyridin-3-yl)-1,2,4-oxadiazole] | < 75 | > 0.316 | < 75 | > 10 | – | – | – | –
CCC1(CC)CC(=O)c2cc(-c3nc(-c4ncccn4)no3)ccc2O1 [Compound 640, 2,2-diethyl-6-(3-(pyrimidin-2-yl)-1,2,4-oxadiazol-5-yl)chroman-4-one] | – | – | – | – | > 75 | > 0.316 | < 75 | > 10
COc1ccccc1-c1cnc(-c2ccc3c(c2)nnn3C(C)C)s1 [Compound 184, 2-(1-isopropyl-1H-benzo[d][1,2,3]triazol-5-yl)-5-(2-methoxy-phenyl)thiazole] | > 75 | > 0.316 | < 75 | > 10 | – | – | – | –
c1ccc(-c2noc(-c3ccc4c(c3)nnn4C3CCCC3)n2)cc1 [Compound 7, 1-cyclopentyl-5-(3-phenyl-1,2,4-oxadiazol-5-yl)-1H-1,2,3-benzotriazole] | > 75 | > 0.316 | > 75 | > 10 | – | – | – | –
CC(C)Nc1ccc(-c2nnc(-c3ccc4c(c3)ncn4C)o2)cc1C#N [Compound 572, 5-[5-(1-methyl-1H-1,3-benzodiazol-5-yl)-1,3,4-oxadiazol-2-yl]-2-[(propan-2-yl)amino]benzonitrile] | – | – | – | – | < 75 | > 0.316 | > 75 | > 10
COc1cccc(F)c1-c1noc(-c2ccc3c(ccn3C(C)C)c2)n1 [Compound 328, 3-(2-fluoro-6-methoxy-phenyl)-5-(1-isopropyl-indol-5-yl)-1,2,4-oxadiazole] | > 75 | > 0.316 | > 75 | < 10 | – | – | – | –
O=C1CC2(CCOCC2)Oc2ccc(-c3nc(-c4ccncc4)no3)cc21 [Compound 148, 6-[3-(pyridin-4-yl)-1,2,4-oxadiazol-5-yl]-3,4-dihydrospiro [1-benzopyran-2,4′-oxane]-4-one] | < 75 | > 0.316 | < 75 | > 10 | – | – | – | –
CCC1(CC)CC(=O)c2cc(-c3nc(-c4cncc(F)c4)no3)ccc2O1 [Compound 551, 2,2-diethyl-6-(3-(5-fluoropyridin-3-yl)-1,2,4-oxadiazol-5-yl)chroman-4-one] | – | – | – | – | > 75 | < 0.316 | < 75 | < 10
CC(C)Oc1ccc(-c2noc(-c3ccc4c(c3)nnn4C(C)C)n2)cc1C(F)(F)F [Compound 20, 3-(4-isopropoxy-3-(trifluoromethyl)phenyl)-5-(1-isopropyl-1H-benzo[d][1,2,3]triazol-5-yl)-1,2,4-oxadiazole] | > 75 | < 0.316 | > 75 | < 10 | – | – | – | –
CCC1(CC)CC(=O)c2cc(-c3nc(-c4cccnn4)no3)ccc2O1 [Compound 621, 2,2-diethyl-6-(3-(pyridazin-3-yl)-1,2,4-oxadiazol-5-yl)chroman-4-one] | – | – | – | – | > 75 | > 0.316 | > 75 | > 10
